According to the supplement of paper PMC8671470:

What was measured:
Settings in all cases: 72 h
BV-173 [1] = system: BV-173
In short: (§1)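 Seeded in RPMI 1640 at densities within the linear growth range, fifteen myeloid leukaemia cell lines were dispensed into 384-well plates with acoustically pre-printed compounds spanning five tenfold doses from 1 to 10,000 nM, in duplicate. The plates were kept for 72 h at 37 °C in 5% CO2 before luminescent ATP viability was measured and normalised to vehicle and to a positive control at 10 µM. Curves were fitted with a four-parameter log-logistic model. The IC50 was taken from those curves.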

HEL = system: HEL
In short: as §1

HL-60 [2] = system: HL-60
In short: as §1

K-562 [3] = system: K-562
In short: as §1

KCL-22 [4] = system: KCL-22
In short: as §1

KG-1 [5] = system: KG-1
In short: as §1

KU-812 [6] = system: KU-812
In short: as §1

LAMA-84 [7] = system: LAMA-84
In short: as §1

ML-2 [8] = system: ML-2
In short: as §1

MOLM-13 [9] = system: MOLM-13
In short: as §1

MV4-11 [10] = system: MV4-11
In short: as §1

Mono-Mac-6 = system: Mono-Mac-6
In short: as §1

NOMO-1 [11] = system: NOMO-1
In short: as §1

SHI-1 = system: SHI-1
In short: as §1

THP-1 [12] = system: THP-1
In short: as §1

HL-60 [13] = experiment: cell viability (% survival relative to DMSO control); higher = less cytotoxic
In short: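 In 384-well plates, the full library was rescreened in duplicate on HL-60 cells in RPMI 1640 with 10% FBS, at 1–10,000 nM in five tenfold concentrations, for 72 h at 37 °C, 5% CO2. Each run also held DMSO or 100 nM of one of three metabolic inhibitors. Viability was measured by CellTiter-Glo and normalised to DMSO wells and to wells with proteasome inhibitor, present at 10 μM. Any area under the curve comes from four-parameter log-logistic fitting with drc and PharmacoGx.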

BV-173 [14] = experiment: cell viability (% survival relative to DMSO control, bortezomib = 0%); higher = less cytotoxic
In short: (§2)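 Fifteen myeloid leukaemia cell lines (10 AML, 5 CML) were seeded at a density titrated to the linear growth range into 384-well plates pre-printed with compounds at 1, 10, 100, 1000 or 10000 nM in duplicate. Plates were incubated for 72 h at 37 °C with 5% CO2. Viability was then read by CellTiter-Glo luminescence. Each value is percent survival averaged over the duplicates, with vehicle set to 100% and a 10 µM positive control to 0%.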

HL-60 [15] = experiment: as above
In short: as §2

K-562 [16] = experiment: as above
In short: as §2

KCL-22 [17] = experiment: as above
In short: as §2

KG-1 [18] = experiment: as above
In short: as §2

KU-812 [19] = experiment: as above
In short: as §2

LAMA-84 [20] = experiment: as above
In short: as §2

ML-2 [21] = experiment: as above
In short: as §2

MOLM-13 [22] = experiment: as above
In short: as §2

MV4-11 [23] = experiment: as above
In short: as §2

NOMO-1 [24] = experiment: as above
In short: as §2

THP-1 [25] = experiment: as above
In short: as §2

CCCCCCCCCCCC(=O)c1c(O)c(C(=O)CCCCCCCCCCC)c(O)c(C2CC(c3ccc(O)cc3)Oc3cc(O)ccc32)c1O (stereo not given)
Settings	IC50 (cell viability) [µM]
BV-173 [1]	> 10
HEL	> 10
HL-60 [2]	> 10
K-562 [3]	> 10
KCL-22 [4]	> 10
KG-1 [5]	> 10
KU-812 [6]	> 10
LAMA-84 [7]	> 10
ML-2 [8]	> 10
MOLM-13 [9]	> 10
MV4-11 [10]	> 10
Mono-Mac-6	> 10
NOMO-1 [11]	> 10
SHI-1	> 10
THP-1 [12]	> 10

cell viability [%], HL-60 [13]
Settings	0.001 µM	0.01 µM	0.1 µM	1 µM	10 µM
co-treatment: AZD3965 100 nM	95.8	104	97.5	107	101
co-treatment: DMSO vehicle	99.8	98.29	99.11	102.2	104.7
co-treatment: GSK2194069 100 nM	101	96.5	101	104	100
co-treatment: pictilisib 100 nM	107	107	99.9	101	95.4

cell viability [%]
Settings	1 nM	10 nM	100 nM	1000 nM	10000 nM
BV-173 [14]	119	114	102	101	89
HL-60 [15]	118	119	70.4	105	114
K-562 [16]	97.9	91.5	99.4	117	108
KCL-22 [17]	107	113	115	123	102
KG-1 [18]	101	117	128	101	81.8
KU-812 [19]	102	104	110	102	105
LAMA-84 [20]	105	99.9	114	103	99.1
ML-2 [21]	105	114	118	116	104
MOLM-13 [22]	101	119	89.5	99.1	82.9
MV4-11 [23]	95.9	115	101	98.5	90.1
NOMO-1 [24]	108	118	110	111	96.7
THP-1 [25]	101	114	107	104	102

CCOP(=O)(OCC)C(=Cc1cc(C(C)(C)C)c(O)c(C(C)(C)C)c1)P(=O)(OCC)OCC
Settings	IC50 (cell viability) [µM]
BV-173 [1]	> 10
HEL	> 10
HL-60 [2]	> 10
K-562 [3]	> 10
KCL-22 [4]	> 10
KG-1 [5]	> 10
KU-812 [6]	> 10
LAMA-84 [7]	> 10
ML-2 [8]	> 10
MOLM-13 [9]	> 10
MV4-11 [10]	> 10
Mono-Mac-6	6.9
NOMO-1 [11]	> 10
SHI-1	> 10
THP-1 [12]	> 10

cell viability [%], HL-60 [13]
Settings	0.001 µM	0.01 µM	0.1 µM	1 µM	10 µM
co-treatment: AZD3965 100 nM	95.9	101	109	101	98
co-treatment: DMSO vehicle	100	105	99.5	104	105
co-treatment: GSK2194069 100 nM	101	104	102	102	94.5
co-treatment: pictilisib 100 nM	96.4	99.31	107	94.9	103

cell viability [%]
Settings	1 nM	10 nM	100 nM	1000 nM	10000 nM
BV-173 [14]	92.7	96.8	121	89.9	64.5
HL-60 [15]	93.9	94.9	159	65.9	83.4
K-562 [16]	91.1	90.4	118	101	90.1
KCL-22 [17]	98.7	108	125	108	94
KG-1 [18]	96.3	91.2	121	91.2	67
KU-812 [19]	98.4	92.3	123	85.5	73.6
LAMA-84 [20]	94.8	99.1	114	97.6	94.1
ML-2 [21]	95.1	98.1	134	78.9	80
MOLM-13 [22]	76	81.8	122	88.9	86.5
MV4-11 [23]	94.2	90.7	117	104	82
NOMO-1 [24]	97	99.1	118	91.4	93.4
THP-1 [25]	96.7	98.1	115	83.9	85.1

COc1ccc(-c2ccccc2)cc1NS(=O)(=O)c1cc(Cl)cc(Cl)c1O
Settings	IC50 (cell viability) [µM]
BV-173 [1]	> 10
HEL	> 10
HL-60 [2]	> 10
K-562 [3]	> 10
KCL-22 [4]	> 10
KG-1 [5]	> 10
KU-812 [6]	> 10
LAMA-84 [7]	> 10
ML-2 [8]	> 10
MOLM-13 [9]	> 10
MV4-11 [10]	> 10
Mono-Mac-6	> 10
NOMO-1 [11]	> 10
SHI-1	> 10
THP-1 [12]	> 10

cell viability [%], HL-60 [13]
Settings	0.001 µM	0.01 µM	0.1 µM	1 µM	10 µM
co-treatment: AZD3965 100 nM	99.4	102	99	96	99.06
co-treatment: DMSO vehicle	96.3	104.5	109	103	99
co-treatment: GSK2194069 100 nM	93.5	99	109	92.7	98.5
co-treatment: pictilisib 100 nM	103	104	114	100	93.2

cell viability [%]
Settings	1 nM	10 nM	100 nM	1000 nM	10000 nM
BV-173 [14]	98.9	90	119	87.1	94.6
HL-60 [15]	88.3	77.6	100	25.6	95.9
K-562 [16]	86.8	105	126	87.9	86.9
KCL-22 [17]	90	92.8	108	93.7	97.7
KG-1 [18]	98.1	96.4	108	83.8	99.2
KU-812 [19]	98.2	84.4	105	95.6	104
LAMA-84 [20]	102	95.1	113	103	99
ML-2 [21]	99.8	102	102	84.5	97.7
MOLM-13 [22]	101	117	113	81	111
MV4-11 [23]	98.8	96.1	117	86.3	98.3
NOMO-1 [24]	102	96	107	92.7	99
THP-1 [25]	101	98.4	101	85.5	99.9

C[C@H](NC(=O)c1sccc1OCc1ccc(Cl)cc1)c1ccccc1
Settings	IC50 (cell viability) [µM]
BV-173 [1]	> 10
HEL	> 10
HL-60 [2]	0.751
K-562 [3]	> 10
KCL-22 [4]	> 10
KG-1 [5]	> 10
KU-812 [6]	> 10
LAMA-84 [7]	> 10
ML-2 [8]	> 10
MOLM-13 [9]	> 10
MV4-11 [10]	> 10
Mono-Mac-6	> 10
NOMO-1 [11]	> 10
SHI-1	> 10
THP-1 [12]	> 10

cell viability [%], HL-60 [13]
Settings	0.001 µM	0.01 µM	0.1 µM	1 µM	10 µM
co-treatment: AZD3965 100 nM	70.8	87.5	99.14	103	92.2
co-treatment: DMSO vehicle	99.5	98.9	96.69	104	97.6
co-treatment: GSK2194069 100 nM	83.9	89.91	98.7	74.5	92.5
co-treatment: pictilisib 100 nM	90.8	95.7	94.9	95.2	108

cell viability [%]
Settings	1 nM	10 nM	100 nM	1000 nM	10000 nM
BV-173 [14]	93.5	99.7	89.2	90.1	50.4
HL-60 [15]	90.6	84.1	106	35.7	56
K-562 [16]	96.4	93.3	87.6	97.2	62
KCL-22 [17]	111	106	97.8	84	65.6
KG-1 [18]	94	103	92.1	91.9	61.4
KU-812 [19]	84.6	96.1	94.8	95.8	59.8
LAMA-84 [20]	94.2	100	94	98.9	65.4
ML-2 [21]	104	108	98.8	106	72.4
MOLM-13 [22]	93.5	95.7	96.8	109	102
MV4-11 [23]	89.3	102	83	96.1	59.9
NOMO-1 [24]	96.6	108	99.3	102	101
THP-1 [25]	101	103	99	103	92.1

O=C(O)c1cc(Cl)cc(Cl)c1O [3,5-Dichlorosalicylic Acid]
Settings	IC50 (cell viability) [µM]
BV-173 [1]	> 10
HEL	> 10
HL-60 [2]	> 10
K-562 [3]	> 10
KCL-22 [4]	> 10
KG-1 [5]	> 10
KU-812 [6]	> 10
LAMA-84 [7]	> 10
ML-2 [8]	> 10
MOLM-13 [9]	> 10
MV4-11 [10]	> 10
Mono-Mac-6	> 10
NOMO-1 [11]	> 10
SHI-1	> 10
THP-1 [12]	> 10

cell viability [%], HL-60 [13]
Settings	0.001 µM	0.01 µM	0.1 µM	1 µM	10 µM
co-treatment: AZD3965 100 nM	107	98.5	99.4	101	101
co-treatment: DMSO vehicle	104	105	101	106	101
co-treatment: GSK2194069 100 nM	97.6	97	95.56	97.5	102
co-treatment: pictilisib 100 nM	80.1	93.1	100	107	103

cell viability [%]
Settings	1 nM	10 nM	100 nM	1000 nM	10000 nM
BV-173 [14]	107	86.1	119	106	106
HL-60 [15]	106	136	84.5	117	93.5
K-562 [16]	107	125	104	111	90.9
KCL-22 [17]	105	140	87	94.7	85.9
KG-1 [18]	107	107	85.6	117	96.8
KU-812 [19]	90.5	93.7	95.8	109	87.3
LAMA-84 [20]	105	87.4	97.5	103	92
ML-2 [21]	97.4	99.8	95.6	107	93.1
MOLM-13 [22]	92	112	83.9	110	91.7
MV4-11 [23]	96	106	91.3	104	88.3
NOMO-1 [24]	93.9	94.9	88.1	105	98.7
THP-1 [25]	95.3	93.3	87.7	96.7	98.8
